Results as given in ChEMBL document CHEMBL4052696, “Varic acid analogues from fungus as PTP1B inhibitors: Biological evaluation and structure-activity relationships” (Bioorg Med Chem Lett, 2017).

Tests used:
[1] = biological target: T1, Tyrosine-protein phosphatase non-receptor type 11 (Homo sapiens, UniProt Q06124); experiment: Inhibition of SHP2 (unknown origin) using p-nitrophenyl phosphate substrate incubated for 30 mins
T1 sequence (Q06124 whole entry): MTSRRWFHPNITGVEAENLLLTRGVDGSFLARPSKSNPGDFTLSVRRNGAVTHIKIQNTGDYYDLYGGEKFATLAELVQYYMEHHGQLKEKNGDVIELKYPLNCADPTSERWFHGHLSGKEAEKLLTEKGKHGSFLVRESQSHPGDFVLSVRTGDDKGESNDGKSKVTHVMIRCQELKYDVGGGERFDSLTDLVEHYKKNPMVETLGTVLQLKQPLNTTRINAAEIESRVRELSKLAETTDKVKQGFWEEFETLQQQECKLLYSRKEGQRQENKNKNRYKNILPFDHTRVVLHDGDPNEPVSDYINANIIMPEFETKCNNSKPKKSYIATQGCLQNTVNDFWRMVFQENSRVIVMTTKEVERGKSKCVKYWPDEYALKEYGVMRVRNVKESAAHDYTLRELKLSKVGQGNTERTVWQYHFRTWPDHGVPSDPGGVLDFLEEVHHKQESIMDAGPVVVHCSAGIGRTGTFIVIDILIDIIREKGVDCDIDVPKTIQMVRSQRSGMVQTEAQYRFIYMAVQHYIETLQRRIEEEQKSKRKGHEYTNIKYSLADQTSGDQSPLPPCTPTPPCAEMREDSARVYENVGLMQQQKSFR

[2] = system: Rattus norvegicus; experiment: Toxicity in normal Wistar rat assessed as induction of hypoglycemia at 10 mg/kg, ip dosed 30 mins before insulin injection and measured 30 mins post insulin injection by glucose-oxidase assay; type: organism-based; settings: in vivo, 0.5 h
[3] = biological target: T2, Tyrosine-protein phosphatase non-receptor type 2 (Homo sapiens, UniProt P17706); experiment: Inhibition of TCPTP (unknown origin) using p-nitrophenyl phosphate substrate incubated for 30 mins
T2 sequence (P17706 whole entry): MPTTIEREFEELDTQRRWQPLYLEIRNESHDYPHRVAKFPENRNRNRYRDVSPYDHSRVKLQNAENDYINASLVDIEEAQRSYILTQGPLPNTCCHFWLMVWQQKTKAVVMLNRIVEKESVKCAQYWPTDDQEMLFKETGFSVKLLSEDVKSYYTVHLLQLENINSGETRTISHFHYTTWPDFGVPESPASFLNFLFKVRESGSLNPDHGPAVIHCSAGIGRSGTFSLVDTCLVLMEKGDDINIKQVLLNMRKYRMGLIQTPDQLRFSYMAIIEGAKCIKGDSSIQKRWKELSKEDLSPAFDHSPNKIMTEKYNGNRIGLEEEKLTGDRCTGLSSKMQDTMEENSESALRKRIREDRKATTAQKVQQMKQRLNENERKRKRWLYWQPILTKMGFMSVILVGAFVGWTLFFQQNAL

[4] = biological target: T3, Tyrosine-protein phosphatase non-receptor type 1 (Homo sapiens, UniProt P18031); experiment: Inhibition of PTP1B (unknown origin) using p-nitrophenyl phosphate substrate incubated for 30 mins
T3 sequence (P18031 whole entry): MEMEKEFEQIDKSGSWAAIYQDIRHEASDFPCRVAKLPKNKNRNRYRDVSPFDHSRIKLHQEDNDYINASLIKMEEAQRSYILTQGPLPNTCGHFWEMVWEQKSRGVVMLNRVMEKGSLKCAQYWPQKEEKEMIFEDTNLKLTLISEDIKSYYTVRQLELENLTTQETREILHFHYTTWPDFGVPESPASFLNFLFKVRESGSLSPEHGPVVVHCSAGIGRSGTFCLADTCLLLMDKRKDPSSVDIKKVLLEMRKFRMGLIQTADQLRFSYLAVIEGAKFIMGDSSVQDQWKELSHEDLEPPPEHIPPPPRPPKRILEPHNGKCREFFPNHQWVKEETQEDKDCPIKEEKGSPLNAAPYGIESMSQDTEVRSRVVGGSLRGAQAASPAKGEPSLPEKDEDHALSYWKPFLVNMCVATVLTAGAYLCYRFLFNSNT

[5] = biological target: Receptor-type tyrosine-protein phosphatase F (Homo sapiens, UniProt P10586); experiment: Inhibition of PTPLAR (unknown origin) using p-nitrophenyl phosphate substrate incubated for 30 mins
[6] = system: Rattus norvegicus; experiment: Toxicity in type 2 diabetic Wistar rat assessed as induction of hypoglycemia at 10 mg/kg, ip dosed 30 mins before insulin injection and measured 30 mins post insulin injection by glucose-oxidase assay; type: organism-based; settings: in vivo, 0.5 h

Receptor-type tyrosine-protein phosphatase F, sequence (P10586 whole entry): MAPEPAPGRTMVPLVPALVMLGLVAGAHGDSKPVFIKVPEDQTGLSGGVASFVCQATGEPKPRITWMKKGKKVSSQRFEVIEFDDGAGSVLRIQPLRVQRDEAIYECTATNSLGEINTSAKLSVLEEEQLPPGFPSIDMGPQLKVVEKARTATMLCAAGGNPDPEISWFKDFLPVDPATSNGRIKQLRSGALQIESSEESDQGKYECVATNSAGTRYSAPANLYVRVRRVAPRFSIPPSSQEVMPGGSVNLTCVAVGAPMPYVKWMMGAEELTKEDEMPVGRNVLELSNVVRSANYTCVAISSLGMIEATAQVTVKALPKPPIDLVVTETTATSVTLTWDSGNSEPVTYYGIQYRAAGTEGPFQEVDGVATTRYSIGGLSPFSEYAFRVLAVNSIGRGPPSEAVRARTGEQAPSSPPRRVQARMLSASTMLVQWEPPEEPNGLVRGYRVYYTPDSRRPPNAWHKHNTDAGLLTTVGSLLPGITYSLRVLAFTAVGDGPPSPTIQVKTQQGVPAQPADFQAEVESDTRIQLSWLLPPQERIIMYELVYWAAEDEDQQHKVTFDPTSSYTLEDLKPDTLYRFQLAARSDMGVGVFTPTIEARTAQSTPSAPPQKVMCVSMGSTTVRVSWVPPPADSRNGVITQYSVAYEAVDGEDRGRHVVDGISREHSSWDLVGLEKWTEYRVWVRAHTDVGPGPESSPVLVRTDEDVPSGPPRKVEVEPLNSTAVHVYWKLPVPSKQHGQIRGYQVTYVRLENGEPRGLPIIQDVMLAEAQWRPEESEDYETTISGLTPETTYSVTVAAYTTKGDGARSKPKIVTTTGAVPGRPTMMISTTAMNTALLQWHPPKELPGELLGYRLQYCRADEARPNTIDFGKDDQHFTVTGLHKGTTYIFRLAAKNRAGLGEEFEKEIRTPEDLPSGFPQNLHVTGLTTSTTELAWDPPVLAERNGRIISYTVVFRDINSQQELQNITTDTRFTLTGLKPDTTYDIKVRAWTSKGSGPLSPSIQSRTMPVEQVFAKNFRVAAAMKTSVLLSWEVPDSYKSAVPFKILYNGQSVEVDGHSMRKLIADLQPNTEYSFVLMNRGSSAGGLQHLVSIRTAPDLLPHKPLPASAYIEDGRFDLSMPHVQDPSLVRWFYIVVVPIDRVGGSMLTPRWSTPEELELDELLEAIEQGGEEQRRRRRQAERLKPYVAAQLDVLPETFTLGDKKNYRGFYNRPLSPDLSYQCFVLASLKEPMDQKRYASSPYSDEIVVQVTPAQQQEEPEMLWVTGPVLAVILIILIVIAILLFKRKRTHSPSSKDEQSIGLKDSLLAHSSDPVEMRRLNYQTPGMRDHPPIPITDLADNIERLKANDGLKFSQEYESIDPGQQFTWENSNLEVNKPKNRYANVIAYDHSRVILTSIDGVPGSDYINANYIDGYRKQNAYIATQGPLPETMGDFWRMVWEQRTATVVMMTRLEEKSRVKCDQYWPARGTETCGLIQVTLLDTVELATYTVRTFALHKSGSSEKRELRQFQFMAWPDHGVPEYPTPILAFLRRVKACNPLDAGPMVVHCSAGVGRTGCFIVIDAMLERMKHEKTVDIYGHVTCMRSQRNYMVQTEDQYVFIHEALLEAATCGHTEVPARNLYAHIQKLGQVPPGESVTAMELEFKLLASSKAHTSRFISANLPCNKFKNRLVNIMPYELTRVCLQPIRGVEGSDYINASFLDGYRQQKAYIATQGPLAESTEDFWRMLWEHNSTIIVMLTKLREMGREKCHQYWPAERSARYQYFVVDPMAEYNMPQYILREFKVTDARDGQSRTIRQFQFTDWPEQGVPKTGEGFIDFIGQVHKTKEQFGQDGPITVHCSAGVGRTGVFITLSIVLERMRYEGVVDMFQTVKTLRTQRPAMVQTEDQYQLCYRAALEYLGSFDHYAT

| Structure (SMILES) | IC50 [1] [µM] | IC50 [3] [µM] | IC50 [4] [µM] | IC50 [5] [µM] | Activity [2] | Activity [6] |
| --- | --- | --- | --- | --- | --- | --- |
| CCCc1cc(OC(=O)c2c(O)cc(OC(=O)c3c(O)cc(O)cc3CCC)cc2CCC)cc(O)c1C(=O)O | 2.73 | 17.7 | 0.17 | > 20 | Non-Toxic | Non-Toxic |
| CCCc1cc(OC)cc(OC)c1C(=O)O | > 20 | > 20 | > 20 | > 20 |  |  |
| CCCc1cc(O)cc(O)c1C(=O)O | 12.6 | > 20 | 1.58 | > 20 |  |  |

More lines, main results first:

| IC50 [1] [µM] | IC50 [3] [µM] | IC50 [4] [µM] | IC50 [5] [µM] | Structure (SMILES) | Activity [2] | Activity [6] |
| --- | --- | --- | --- | --- | --- | --- |
| 0.18 | 4.74 | 4.27 | > 20 | CCC/C=C/C=C/CCc1cc(O)cc(O)c1C(=O)O |  |  |
| 15 | > 20 | 0.72 | > 20 | CCCc1cc(O)cc(OC(=O)c2c(O)cc(O)cc2CCC)c1 |  |  |
| > 20 | > 20 | 0.51 | > 20 | CCCc1cc(OC(=O)c2c(O)cc(O)cc2CCC)cc(O)c1C(=O)O |  |  |
